Assay results: the supplement of paper PMC8149375

Assays:
Conditions in all cases: treatment: drug alone; 5 days
UO-31 [1] = experiment: AUC of dose-response viability curve, drug alone (arbitrary (AUC of normalised viability)); higher = less growth inhibition
Description: (§1)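 Primary HTS: 8 RCC cell lines treated with 8 doses (up to 10 uM) of each library drug alone for 5 days; viability read by CellTiter-Glo and normalised to DMSO. GI50 was fitted with XLfit (4-parameter), AUC is the area under the dose-response curve, and minimum viability is the lowest fraction of DMSO viability across doses.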

TK-10 [2] = experiment: as above
Description: as §1

SN12C [3] = experiment: as above
Description: as §1

769-P [4] = experiment: as above
Description: as §1

786-O [5] = experiment: as above
Description: as §1

A498 [6] = experiment: as above
Description: as §1

CAKI-1 [7] = experiment: as above
Description: as §1

ACHN [8] = experiment: as above
Description: as §1

UO-31 [9] = experiment: minimum viability across doses, drug alone, relative to DMSO (fraction); higher = less growth inhibition
Description: as §1

TK-10 [10] = experiment: as above
Description: as §1

SN12C [11] = experiment: as above
Description: as §1

769-P [12] = experiment: as above
Description: as §1

786-O [13] = experiment: as above
Description: as §1

A498 [14] = experiment: as above
Description: as §1

CAKI-1 [15] = experiment: as above
Description: as §1

ACHN [16] = experiment: as above
Description: as §1

UO-31 [17] = experiment: GI50, drug alone; higher = less potent
Description: as §1

TK-10 [18] = experiment: GI50, drug alone; higher = less potent
Description: as §1

SN12C [19] = experiment: GI50, drug alone; higher = less potent
Description: as §1

769-P [20] = experiment: GI50, drug alone; higher = less potent
Description: as §1

786-O [21] = experiment: GI50, drug alone; higher = less potent
Description: as §1

A498 [22] = experiment: GI50, drug alone; higher = less potent
Description: as §1

CAKI-1 [23] = experiment: GI50, drug alone; higher = less potent
Description: as §1

ACHN [24] = experiment: GI50, drug alone; higher = less potent
Description: as §1

Row | SMILES | AUC of dose-response viability curve (UO-31 [1]) | AUC of dose-response viability curve (TK-10 [2]) | AUC of dose-response viability curve (SN12C [3]) | AUC of dose-response viability curve (769-P [4]) | AUC of dose-response viability curve (786-O [5]) | AUC of dose-response viability curve (A498 [6]) | AUC of dose-response viability curve (CAKI-1 [7]) | AUC of dose-response viability curve (ACHN [8]) | minimum viability across doses (UO-31 [9]) | minimum viability across doses (TK-10 [10]) | minimum viability across doses (SN12C [11]) | minimum viability across doses (769-P [12]) | minimum viability across doses (786-O [13]) | minimum viability across doses (A498 [14]) | minimum viability across doses (CAKI-1 [15]) | minimum viability across doses (ACHN [16]) | GI50, drug alone (UO-31 [17]) [µM] | GI50, drug alone (TK-10 [18]) [µM] | GI50, drug alone (SN12C [19]) [µM] | GI50, drug alone (769-P [20]) [µM] | GI50, drug alone (786-O [21]) [µM] | GI50, drug alone (A498 [22]) [µM] | GI50, drug alone (CAKI-1 [23]) [µM] | GI50, drug alone (ACHN [24]) [µM]
1 | CC1(C)CCC(CN2CCN(c3ccc(C(=O)NS(=O)(=O)c4ccc(NCC5CCOCC5)c([N+](=O)[O-])c4)c(Oc4cnc5[nH]ccc5c4)c3)CC2)=C(c2ccc(Cl)cc2)C1 [ABT-199 (GDC-0199 )] | 3.98 | 3.06 | 3.19 | 3.47 | 2.19 | 3.73 | 3.28 | 3.16 | 1.02 | 0.617 | 0.821 | 0.88 | 0.442 | 0.915 | 0.846 | 0.847 | > 10 | > 10 | > 10 | > 10 | < 0.003 | > 10 | > 10 | > 10
2 | CC(C)c1ccccc1Cc1cc(C(=O)Nc2ccc(S(=O)(=O)c3ccccc3C(C)(C)C)cc2)c(O)c(O)c1O [TW-37] | 4.07 | 2.25 | 2.97 | 3.12 | 1.54 | 4 | 2.77 | 2.48 | 0.0881 | 0.296 | 0.499 | 0.0442 | 0.0508 | 0.946 | 0.0857 | 0.0989 | 8.46 | 1.73 | > 10 | 2.8 | 0.133 | > 10 | 0.926 | 1.46
3 | CC1(C)CCC(c2ccc(Cl)cc2)=C(CN2CCN(c3ccc(C(=O)NS(=O)(=O)c4ccc(N[C@H](CCN5CCOCC5)CSc5ccccc5)c(S(=O)(=O)C(F)(F)F)c4)cc3)CC2)C1 [ABT-263 (Navitoclax)] | 2.31 | 2.39 | 3.21 | 3.02 | 1.72 | 3 | 3.41 | 2.51 | 0.00527 | 0.163 | 0.524 | 0.0787 | 0.00566 | 0.622 | 0.603 | 0.0597 | 0.784 | 1.07 | > 10 | 3.17 | 0.181 | > 10 | > 10 | 2.28
4 | Cc1nc(NC(=O)N2CCC[C@H]2C(N)=O)sc1-c1csc(C(C)(C)C)n1 [A66] | 3.47 | 2.93 | 2.94 | 3.33 | 2.57 | 3.34 | 3.36 | 3.42 | 0.757 | 0.631 | 0.659 | 0.823 | 0.418 | 0.787 | 0.805 | 0.803 | > 10 | > 10 | > 10 | > 10 | 5.72 | > 10 | > 10 | > 10
5 | Cc1ccc(-n2nc(C(C)(C)C)cc2NC(=O)Nc2ccc(OCCN3CCOCC3)c3ccccc23)cc1 [BIRB 796 (Doramapimod)] | 3.74 | 3.02 | 3.36 | 3.52 | 3.46 | 4.02 | 3.46 | 2.88 | 0.787 | 0.712 | 0.796 | 0.91 | 0.748 | 0.879 | 0.858 | 0.709 | > 10 | > 10 | > 10 | > 10 | > 10 | > 10 | > 10 | > 10
6 | COc1cc2c(N3CCN(C(=O)Nc4ccc(OC(C)C)cc4)CC3)ncnc2cc1OCCCN1CCCCC1 [Tandutinib (MLN518)] | 4.36 | 3.23 | 3.14 | 3.32 | 3.61 | 3.63 | 3.41 | 3.5 | 1.09 | 0.818 | 0.74 | 0.818 | 0.609 | 0.96 | 0.729 | 0.767 | > 10 | > 10 | > 10 | > 10 | > 10 | > 10 | > 10 | > 10
7 | CCC[C@H](NC(=O)/C(C#N)=C/c1cccc(Br)n1)c1ccccc1 [WP1130] | 3.72 | 2.56 | 2.97 | 3.17 | 2.24 | 3.33 | 3.18 | 3.26 | 0.0144 | 0.0704 | 0.0172 | 0.0147 | 0.00591 | 0.0682 | 0.0261 | 0.00429 | 8.04 | 4.1 | 4.46 | 4.25 | 1.54 | 5.12 | 4.52 | 4.37
8 | CN1CCN(c2cccc(Nc3nc4c(-c5ccc(S(C)(=O)=O)cc5)cccn4n3)c2)CC1 | 4.6 | 2.82 | 3.13 | 3.49 | 3.18 | 4.91 | 2.85 | 2.65 | 0.707 | 0.298 | 0.599 | 0.782 | 0.585 | 1.13 | 0.244 | 0.293 | > 10 | 3.53 | > 10 | > 10 | > 10 | > 10 | 2.31 | 1.4
9 | Cc1ccc(Nc2nccc(N(C)c3ccc4c(C)n(C)nc4c3)n2)cc1S(N)(=O)=O.Cl [Pazopanib HCl] | 4.39 | 3.14 | 3.1 | 3.18 | 2.85 | 3.57 | 3.09 | 3.21 | 0.63 | 0.661 | 0.193 | 0.207 | 0.427 | 0.514 | 0.0579 | 0.224 | > 10 | > 10 | 5.96 | > 10 | < 0.003 | > 10 | 6.83 | 5.26
